Patent publication US20220089600A1, “TGFß INHIBITOR AND PRODRUGS” (FUNDACIÓ INSTITUT DE RECERCA BIOMÈDICA (IRB BARCELONA), priority 2018, published 2022)

Assays:
MTO129 liver metastases [1] = experiment: Mouse liver metastasis initiation/formation assay with MTOs; type: in vivo; settings: for Efficacy (Cure rate): two weeks, mice with no metastases
Source text: Mouse tumor organoids (MTOs) are derived from compound transgenic mice (conditional mutations in Apc, Kras, Trp53 and Tgfbr2, as well as bearing Lgr5-EGFP/CreER^T2) of the C57BL6/J strain and cultured as described in Tauriello et al. 2018 Nature 554(7693): 538-543. doi: 10.1038/nature25492. Organoids are tumor epithelial cells grown in a 3D matrix where they adopt an organotypic architecture, typically as spheroids with a lumen. In this way, cells retain a relatively normal polarity (which means that the outside surface, inside/luminal surface and cell-cell contacts are individually specialized), which is more physiological than in conventional 2D cell culture.
In all experiments described in present invention MTO129 were used (Tauriello et al. Nature. 2018).
In patients, treatment doses were reduced to 80 to 150 mg b.i.d in a regime of 14 days on-14 days off.
MTOs expressing a luciferase reporter were measured by bioluminescence imaging, using retroorbital injection of 50 μl 15 mg/ml D-luciferin potassium salt (Resem BV). Photons per second from the region spanning thorax/abdomen were quantified and normalized to the measure at the day of injection.
Control mice were treated with 150 μl of vehicle.
In the experiment shown in FIG. 13, potency of the indicated compounds to inhibit metastasis formation was assessed. Mice were treatments with indicated compounds started two days after MTO129 transplantation and continued during two weeks. Mice were sacrificed at 4 weeks post transplantation and liver metastases (LiMs) were counted by eye on fixed livers.

MTO129 liver metastases [2] = experiment: Liver metastasis formation assay versus compounds 338 and 337 (FIG. 17); type: in vivo, mouse; settings: FIG. 17, 1× dose, day 2 to 18, count at 21 days
Method: In another experiment (FIG. 17), we compared the in vivo therapeutic activity of compound of formula I to the related compound 338 and compound 337. […] All mice were treated from day 2 to day 18 post inoculation of tumor cells. Number of liver metastases were counted at 21 days after MTO inoculation.

Cc1cccc(-c2nn3c(c2-c2ccnc4ccc(O)cc24)CCC3)n1 [compound of formula I, 4-(2-(6-methylpyridin-2-yl)-5,6-dihydro-4H-pyrrolo[1,2-b]pyrazol-3-yl)quinolin-6-ol]
Efficacy (Cure rate) (MTO129 liver metastases [1]; 0.3x dose): ~90%
Efficacy (Cure rate) (MTO129 liver metastases [1]; 1x dose): ~90%
Efficacy (Cure rate) (MTO129 liver metastases [1]; 3x dose): 100%
Efficacy (Cure rate) (MTO129 liver metastases [1]; 9x dose): 100%
liver tumor count (LiMs) compared to galunisertib (MTO129 liver metastases [1]; FIG. 3, 0.3× to 9× doses): significant lower amount of liver tumors
metastatic tumor growth inhibitory capacity (bioluminescence) (MTO129 liver metastases [1]; FIG. 4, 0.3× dose, day 3 until day 14): effective
activity in preventing liver metastasis formation, in words (MTO129 liver metastases [1]; FIG. 13, 0.3× dose (21.25 mg/Kg b.i.d)): still effective
activity in preventing liver metastasis formation, in words (MTO129 liver metastases [1]; FIG. 13, 1× dose): significant improved activity
effective dose, fold lower than the effective Galunisertib dose (MTO129 liver metastases [1]; in vivo experiments): 10 fold
effective dose (>50% efficacy) (MTO129 liver metastases [1]; oral, divided b.i.d.): 42.5 mg/kg/day
potency to block the formation of metastasis compared to compound 338 and compound 337 (MTO129 liver metastases [2]): enhanced potency
